Several values for one entry are separate records, joined by “and”; a condition that tells them apart may be missing. Equal entries are not always repeated.
Experiments:
human TRPV3 = biological target: T1, human TRPV3 (Homo sapiens, UniProt Q8NET8); assay: Ca2+ signal in N2a cells transfected with human TRPV3 (camphor); format: cell-based; conditions: camphor stimulation
T1 construct: expressed in transfected cells; host or cells: N2a cells
Description: (§1) Compounds were tested for their effect on TRPV1, TRPV2, and TRPV3. Methods were similar to those described in Example 15. Briefly, N2a cells were transfected with human TRPV1, TRPV2, or TRPV3. eGFP-transfection was used as control. For specific stimulation of TRPV1, 5 μM capsaicin was used. For stimulation of TRPV2, hypotonicity (260 mosmol/L) was used, based on previous reports of TRPV2 being osmotically responsive. N2a cells were not responsive to hypotonicity, and neither were control-transfected cells. For TRPV3-expressing cells, camphor (20% of a commercially available stock solution) was used. […] Stimulation and control protocols were applied as for TRPA1-expressing N2a cells as detailed above in Example 15.

[1] = tested on: BL6 mice, whisker-pad injection of formalin; assay: Formalin-evoked nocifensive behavior, compound pre-injected into the whiskerpad; format: in vivo, mouse; conditions: 0.5 mM/10 μL pre-injected into whiskerpad 15 min before formalin
Description: Compounds were tested for their effect in reducing pain using an in vivo pain model in mice. For mouse formalin-evoked irritant behavior measurements, mice were well-fed, well-rested, and tested at the same time of day, at the same time-point of their circadian rhythm. They were allowed to acclimate to a plexiglas chamber for at least 30 min before testing, and received 10 μL subcutaneous injection of 4% of formalin (diluted from an aqueous solution of commercial 37% formaldehyde with normal saline (NS)) through a 30-gauge needle into the right whiskerpad, as further detailed in Luccarini et al. (J. Pain, 2006, 7, 908-914). Normal saline was used as control injection. After injection, mice were immediately placed back into the chamber and the rubbing behavior was recorded by a private consumer-type video-camera for a 45 min observation period. The recording time was divided into 9 blocks of 5 min, and a nociceptive score was determined per block by measuring the time that the animals spent rubbing the injected area predominantly with the ipsilateral fore-paw and rarely with hind-paw. This rubbing behavior with fore-paw is evoked by pain, which is distinct from itch behavior. Behavioral analysis was conducted by observers blinded to treatment.
To investigate the effects of the specific compounds GSK205, 16-8, and 16-19 on formalin-induced nociceptive behavior, mice received a single subcutaneous injection of the compounds into the whiskerpad (10 μL, dissolved in 4% DMSO) 15 min before formalin injection. Control animals received the same volume of NS, 4% DMSO.

human TRPV2 = biological target: T2, human TRPV2 (Homo sapiens, UniProt Q9Y5S1); assay: Ca2+ signal in N2a cells transfected with human TRPV2 (hypotonicity); format: cell-based; conditions: hypotonicity 260 mosmol/L
T2 construct: expressed in transfected cells; host or cells: N2a cells
Description: as §1

TRPV4 (rat) = biological target: T3, TRPV4 (rat) (Rattus norvegicus, UniProt Q9ERZ8); assay: Ca++ imaging in N2a cells with directed expression of TRPV4, activation with GSK101; format: cell-based; conditions: for IC50: N2a cells, rat TRPV4, 5 nM GSK101, averaged peak ΔCa++, read-out: IC50, inhibition of TRPV4-mediated Ca++ influx; for inhibition of TRPV4-mediated Ca++ influx, first round screening: inhibitor 5 μM, 5 nM GSK101
T3 construct: expressed in transfected cells; host or cells: N2a (mouse neuroblastoma) cells
Excerpt: FIGS. 26A-26B: Assessment of compounds in N2a cells with directed expression of TRPV4. […] The number on each bar corresponds to average peak ΔCa++ concentrations in ≈100 cells. […] Plot generated from averaged peak ΔCa++ concentration of 75 cells per data-point.

TRPV3 = biological target: T4, TRPV3 (Mus musculus, UniProt Q8K424); assay: Ca++ imaging in N2a cells over-expressing TRPV3; format: cell-based; conditions: 5 μM, mouse isoform in N2a cells
T4 construct: expressed in transfected cells; host or cells: N2a cells, eGFP co-transfected
Excerpt: (§2) Mean±SEM is shown, ≥100 cells per condition. […] Plot generated from averaged peak ΔCa++ concentration of […] per data-point.

human TRPA1 = biological target: T5, human TRPA1 (Homo sapiens, UniProt O75762); assay: Ca2+ transient in N2a cells transfected with human TRPA1, AITC activation; format: cell-based; conditions: GSK205: doses below or equaling 25 μM
T5 construct: expressed in transfected cells; host or cells: N2a cells, co-transfected with eGFP plasmid
Description: Compounds were tested for their effect on TRPA1. N2a permanent cells were transfected with human TRPA1 cDNA, using a pcDNA3.1 expression plasmid. They were co-transfected with eGFP-expressing plasmid, or, for control, with eGFP plasmid only.
Cells were then pre-exposed to 5 μM of compounds 16-8 and 16-19 for 10 min.

TRPA1 (mouse) = biological target: T6, TRPA1 (mouse) (Mus musculus, UniProt Q8BLA8); assay: Ca++ imaging in N2a cells with directed expression of TRPA1, mustard oil activation; format: cell-based; conditions: mouse TRPA1, 100 μM mustard oil, read-out: IC50, inhibition of TRPA1
T6 construct: expressed in transfected cells; host or cells: N2a cells, eGFP co-transfected
Excerpt: as §2

TRPV4 = TRPV4 (Homo sapiens, UniProt Q9HBA0); assay: TRPV4-mediated calcium influx in N2a cells with targeted expression of human TRPV4; format: cell-based; set-up: expressed in transfected cells; host or cells: N2a cells; conditions: 2.5 μM inhibitor, pre-incubation 10 min, 10 nM GSK101
TRPV2 = biological target: T7, TRPV2 (Mus musculus, UniProt Q9WTR1); assay: Ca++ imaging in N2a cells over-expressing TRPV2; format: cell-based; conditions: 5 μM, mouse isoform in N2a cells
T7 construct: expressed in transfected cells; host or cells: N2a cells, eGFP co-transfected
Excerpt: as §2

[2] = Assessment of hepatic, renal and cardiac function in treated mice; format: in vivo, mouse; conditions: 10 mg/kg i.p., vs vehicle; for heart rate (EKG): over 1 h, at the 6 h time-point
Description: Mice were treated i.p. with compounds 16-8 and 16-19 (10 mg/kg). Hepatic and renal integrity were analyzed by alanine amino-transferase- and creatinine assays (Sigma), both relying on measurement of absorbance at λ=570 nm in 96-well micro-titerplates. 8 technical replicates per animal were performed.
For heart rate assessment in mice treated with 16-8 and 16-19, animals were fitted with two electrodes, one to the ear, via clip, one to the rib-cage, using firm adhesive. Heart rate was monitored and analyzed using axoscope and clampfit 9.2 software (Molecular Devices)

TRPV4, sequence (Q9HBA0 whole entry, canonical isoform): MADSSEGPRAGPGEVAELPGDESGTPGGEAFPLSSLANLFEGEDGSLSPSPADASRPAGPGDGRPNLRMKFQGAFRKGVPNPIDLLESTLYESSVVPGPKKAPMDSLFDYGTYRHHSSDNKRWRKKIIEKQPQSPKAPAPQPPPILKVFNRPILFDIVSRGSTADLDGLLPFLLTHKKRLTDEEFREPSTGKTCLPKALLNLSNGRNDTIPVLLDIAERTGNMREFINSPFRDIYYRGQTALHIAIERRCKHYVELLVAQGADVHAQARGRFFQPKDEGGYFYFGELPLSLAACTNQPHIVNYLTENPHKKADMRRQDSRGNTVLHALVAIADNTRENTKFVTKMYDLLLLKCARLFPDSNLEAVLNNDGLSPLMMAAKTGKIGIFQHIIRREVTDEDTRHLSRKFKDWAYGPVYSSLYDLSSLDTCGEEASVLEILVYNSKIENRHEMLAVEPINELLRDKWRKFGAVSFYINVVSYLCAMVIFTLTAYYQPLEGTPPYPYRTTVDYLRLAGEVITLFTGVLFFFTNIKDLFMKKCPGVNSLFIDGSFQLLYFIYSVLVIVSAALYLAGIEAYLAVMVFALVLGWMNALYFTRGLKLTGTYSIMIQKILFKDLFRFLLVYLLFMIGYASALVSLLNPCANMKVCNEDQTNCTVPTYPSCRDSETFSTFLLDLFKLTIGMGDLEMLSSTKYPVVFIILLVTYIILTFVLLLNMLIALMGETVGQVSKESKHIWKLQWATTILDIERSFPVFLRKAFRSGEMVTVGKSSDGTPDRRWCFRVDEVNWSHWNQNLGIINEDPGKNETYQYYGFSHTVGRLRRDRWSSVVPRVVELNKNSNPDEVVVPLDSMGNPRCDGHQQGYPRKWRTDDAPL
T5 sequence (O75762 whole entry): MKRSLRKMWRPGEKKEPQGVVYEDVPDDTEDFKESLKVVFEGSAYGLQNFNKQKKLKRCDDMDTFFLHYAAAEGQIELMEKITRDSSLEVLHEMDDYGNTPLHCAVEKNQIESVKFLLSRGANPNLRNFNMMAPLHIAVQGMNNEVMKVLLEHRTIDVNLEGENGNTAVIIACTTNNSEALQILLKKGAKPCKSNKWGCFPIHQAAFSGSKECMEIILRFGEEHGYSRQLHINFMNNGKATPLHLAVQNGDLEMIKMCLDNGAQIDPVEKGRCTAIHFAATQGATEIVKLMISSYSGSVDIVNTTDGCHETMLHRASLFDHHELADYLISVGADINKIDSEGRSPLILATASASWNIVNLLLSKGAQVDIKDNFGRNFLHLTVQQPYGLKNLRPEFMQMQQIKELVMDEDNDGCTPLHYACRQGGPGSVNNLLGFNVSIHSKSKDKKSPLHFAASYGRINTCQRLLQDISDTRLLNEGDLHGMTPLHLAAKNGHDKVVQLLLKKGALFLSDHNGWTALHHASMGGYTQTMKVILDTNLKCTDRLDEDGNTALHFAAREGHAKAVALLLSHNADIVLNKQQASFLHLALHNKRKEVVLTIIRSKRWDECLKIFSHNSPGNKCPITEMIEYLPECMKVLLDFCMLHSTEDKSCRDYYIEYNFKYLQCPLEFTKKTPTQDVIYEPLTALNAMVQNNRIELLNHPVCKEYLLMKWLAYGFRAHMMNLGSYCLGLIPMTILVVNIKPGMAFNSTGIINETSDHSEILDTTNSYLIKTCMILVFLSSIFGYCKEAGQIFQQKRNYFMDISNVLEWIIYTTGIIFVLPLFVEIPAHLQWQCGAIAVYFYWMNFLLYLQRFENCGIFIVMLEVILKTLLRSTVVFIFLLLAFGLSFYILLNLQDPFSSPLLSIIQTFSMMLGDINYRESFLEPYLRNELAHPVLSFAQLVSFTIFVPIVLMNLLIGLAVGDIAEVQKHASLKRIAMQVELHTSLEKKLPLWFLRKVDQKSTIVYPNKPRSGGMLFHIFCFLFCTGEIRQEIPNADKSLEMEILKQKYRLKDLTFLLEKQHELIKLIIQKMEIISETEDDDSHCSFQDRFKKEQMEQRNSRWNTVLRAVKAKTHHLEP
T6 sequence (Q8BLA8 whole entry): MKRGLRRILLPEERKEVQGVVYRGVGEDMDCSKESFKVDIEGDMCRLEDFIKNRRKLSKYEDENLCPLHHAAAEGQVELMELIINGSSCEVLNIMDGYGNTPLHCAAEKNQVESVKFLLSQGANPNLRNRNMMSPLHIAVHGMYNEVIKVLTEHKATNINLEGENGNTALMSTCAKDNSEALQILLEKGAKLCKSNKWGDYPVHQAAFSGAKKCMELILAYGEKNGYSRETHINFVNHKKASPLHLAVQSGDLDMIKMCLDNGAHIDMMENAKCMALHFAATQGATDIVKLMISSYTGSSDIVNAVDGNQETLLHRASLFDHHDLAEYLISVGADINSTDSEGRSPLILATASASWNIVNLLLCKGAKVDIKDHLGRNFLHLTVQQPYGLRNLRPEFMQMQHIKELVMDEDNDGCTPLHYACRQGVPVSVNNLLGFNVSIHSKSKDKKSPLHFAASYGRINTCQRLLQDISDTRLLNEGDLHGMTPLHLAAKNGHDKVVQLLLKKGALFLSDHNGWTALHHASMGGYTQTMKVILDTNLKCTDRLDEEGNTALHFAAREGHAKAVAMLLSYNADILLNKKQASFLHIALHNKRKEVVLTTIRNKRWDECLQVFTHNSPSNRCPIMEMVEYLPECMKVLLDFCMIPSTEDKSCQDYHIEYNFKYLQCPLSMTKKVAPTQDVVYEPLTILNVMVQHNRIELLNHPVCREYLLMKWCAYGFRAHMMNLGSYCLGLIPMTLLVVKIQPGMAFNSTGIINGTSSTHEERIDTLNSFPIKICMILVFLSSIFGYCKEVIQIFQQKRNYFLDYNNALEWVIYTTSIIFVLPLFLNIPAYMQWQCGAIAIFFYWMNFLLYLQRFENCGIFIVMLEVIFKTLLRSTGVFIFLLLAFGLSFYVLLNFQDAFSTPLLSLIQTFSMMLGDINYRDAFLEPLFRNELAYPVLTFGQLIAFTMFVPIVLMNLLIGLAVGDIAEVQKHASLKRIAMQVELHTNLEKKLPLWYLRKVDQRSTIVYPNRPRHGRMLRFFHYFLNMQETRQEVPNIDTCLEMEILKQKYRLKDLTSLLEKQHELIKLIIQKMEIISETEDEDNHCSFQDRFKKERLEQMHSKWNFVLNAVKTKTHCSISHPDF
T3 sequence (Q9ERZ8 whole entry): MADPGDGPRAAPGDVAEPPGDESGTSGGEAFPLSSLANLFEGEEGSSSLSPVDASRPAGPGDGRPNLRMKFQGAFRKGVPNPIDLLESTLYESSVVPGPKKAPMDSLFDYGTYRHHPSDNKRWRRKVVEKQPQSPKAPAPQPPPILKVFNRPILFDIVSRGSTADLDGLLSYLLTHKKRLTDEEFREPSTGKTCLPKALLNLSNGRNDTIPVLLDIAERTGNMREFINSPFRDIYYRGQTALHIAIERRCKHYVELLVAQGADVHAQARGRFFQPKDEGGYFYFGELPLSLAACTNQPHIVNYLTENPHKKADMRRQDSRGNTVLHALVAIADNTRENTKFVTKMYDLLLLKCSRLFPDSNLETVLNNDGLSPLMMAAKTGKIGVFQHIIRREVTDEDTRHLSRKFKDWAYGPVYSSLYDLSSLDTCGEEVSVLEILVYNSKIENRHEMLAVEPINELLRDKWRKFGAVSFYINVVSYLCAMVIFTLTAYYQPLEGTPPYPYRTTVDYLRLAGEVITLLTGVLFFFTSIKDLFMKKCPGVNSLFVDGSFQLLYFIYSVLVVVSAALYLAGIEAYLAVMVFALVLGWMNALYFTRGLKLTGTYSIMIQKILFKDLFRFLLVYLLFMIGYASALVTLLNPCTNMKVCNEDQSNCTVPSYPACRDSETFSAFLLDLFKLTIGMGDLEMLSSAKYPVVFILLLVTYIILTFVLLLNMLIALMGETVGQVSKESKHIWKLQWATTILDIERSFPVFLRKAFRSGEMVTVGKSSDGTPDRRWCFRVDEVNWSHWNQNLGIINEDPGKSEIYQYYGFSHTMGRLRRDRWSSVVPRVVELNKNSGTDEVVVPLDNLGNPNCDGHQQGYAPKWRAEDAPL
T7 sequence (Q9WTR1 whole entry, canonical isoform): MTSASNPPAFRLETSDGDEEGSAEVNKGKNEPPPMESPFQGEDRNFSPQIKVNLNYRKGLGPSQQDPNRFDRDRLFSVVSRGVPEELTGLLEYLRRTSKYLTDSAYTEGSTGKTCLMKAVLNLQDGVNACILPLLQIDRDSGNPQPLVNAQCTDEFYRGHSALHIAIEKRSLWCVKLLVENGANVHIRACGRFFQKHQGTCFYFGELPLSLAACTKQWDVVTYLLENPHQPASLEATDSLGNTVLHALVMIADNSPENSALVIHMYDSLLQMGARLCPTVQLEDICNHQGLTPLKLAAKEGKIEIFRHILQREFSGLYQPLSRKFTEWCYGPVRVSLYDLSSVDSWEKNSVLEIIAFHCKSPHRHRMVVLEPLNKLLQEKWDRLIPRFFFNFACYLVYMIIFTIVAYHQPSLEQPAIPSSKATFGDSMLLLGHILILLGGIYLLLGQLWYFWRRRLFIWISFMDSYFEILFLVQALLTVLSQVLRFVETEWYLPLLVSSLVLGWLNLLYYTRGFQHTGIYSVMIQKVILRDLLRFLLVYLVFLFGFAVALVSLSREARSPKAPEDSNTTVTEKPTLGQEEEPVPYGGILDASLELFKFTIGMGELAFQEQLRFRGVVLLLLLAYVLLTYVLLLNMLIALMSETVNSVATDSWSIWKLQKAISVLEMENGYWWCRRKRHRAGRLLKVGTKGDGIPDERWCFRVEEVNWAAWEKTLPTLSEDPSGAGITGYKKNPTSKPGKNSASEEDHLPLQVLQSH

CN(CCc1ccc(Nc2nc(-c3ccccc3)cs2)cc1)Cc1ccccc1 [Compound 16-8]
effect on Ca2+ transience, TRPV3 (human TRPV3): not affected
nocifensive behavior, in particular second phase [1]: significant attenuation
effect on Ca2+ transience, TRPV2 (human TRPV2): not affected
IC50 (TRPV4 (rat)): 450 nM
inhibition of TRPV4-mediated Ca++ influx, first round screening (TRPV4 (rat)): virtually eliminated Ca++ influx
inhibition of TRPV3 (TRPV3): did not inhibit
inhibitory activity against human TRPA1 (human TRPA1): showed inhibitory activity
IC50 (TRPA1 (mouse)): 410 nM and 430 nM
inhibition of TRPV4-mediated calcium influx (peak calcium concentration) (TRPV4): most potent
inhibition of TRPV2 (TRPV2): did not inhibit
heart rate (EKG) [2]: did not detect differences and changes in heart rate
alanine-amino-transferase (ALT) [2]: not significantly elevated
serum creatinin [2]: not significantly elevated

CCN(CCc1ccc(Nc2nc(-c3ccccc3)cs2)cc1)Cc1ccccc1 [Compound 16-19]
effect on Ca2+ transience, TRPV3 (human TRPV3): not affected
nocifensive behavior, in particular second phase [1]: significant attenuation
effect on Ca2+ transience, TRPV2 (human TRPV2): not affected
IC50 (TRPV4 (rat)): 590 nM and 810 nM
increased potency versus parental compound GSK205 (TRPV4 (rat); from IC50 values, rat TRPV4 in N2a cells): ~8 fold
inhibition of TRPV4-mediated Ca++ influx, first round screening (TRPV4 (rat)): virtually eliminated Ca++ influx
inhibition of TRPV3 (TRPV3): did not inhibit
inhibitory activity against human TRPA1 (human TRPA1): showed inhibitory activity
IC50 (TRPA1 (mouse)): 430 nM and 410 nM
inhibition of TRPV4-mediated calcium influx (peak calcium concentration) (TRPV4): did not show enhanced inhibition over 16-8
inhibition of TRPV2 (TRPV2): did not inhibit
heart rate (EKG) [2]: did not detect differences and changes in heart rate
alanine-amino-transferase (ALT) [2]: not significantly elevated
serum creatinin [2]: not significantly elevated

CN(CCc1ccc(Nc2nc(-c3cccnc3)cs2)cc1)Cc1ccccc1 [GSK205]
nocifensive behavior, in particular second phase [1]: lack of effect
IC50 (TRPV4 (rat)): 4190 nM
inhibitory activity against human TRPA1 (human TRPA1): did not inhibit TRPA1 activity
IC50 (TRPA1 (mouse)): 5560 ± 400 nM
inhibition of TRPV4-mediated calcium influx (peak calcium concentration) (TRPV4): very low potency
